Assay results reported in paper PMC6300691, “Enhancement of Heat Stability and Kinetic Parameters of the Maize Endosperm ADP-Glucose Pyrophosphorylase by Mutagenesis of Amino Acids in the Small Subunit With High B Factors” (Frontiers in Plant Science, 2018).
Substitutions are numbered along the chain they refer to.

What was measured:
Assay in all cases: Initial-rate assay without 3-PGA, ATP and G-1-P both varied (0.01-10 mM and 0.1-25 mM), global fit to a sequential mechanism.
Assay type in all cases: biochemical
Settings in all cases: read-out: ATP Km (absence of 3-PGA)
[1] = target: T1, E123G, R331K, K402R (BT2-BF) (Zea mays, UniProt P55241+Q947C0, E123G/R331K/K402R)
T1 construct: BT2-BF with wild type SH2 (SH2-WT/BT2-BF), E. coli, purified
T1 sequence (Q947C0 1-475 E123G/R331K/K402R): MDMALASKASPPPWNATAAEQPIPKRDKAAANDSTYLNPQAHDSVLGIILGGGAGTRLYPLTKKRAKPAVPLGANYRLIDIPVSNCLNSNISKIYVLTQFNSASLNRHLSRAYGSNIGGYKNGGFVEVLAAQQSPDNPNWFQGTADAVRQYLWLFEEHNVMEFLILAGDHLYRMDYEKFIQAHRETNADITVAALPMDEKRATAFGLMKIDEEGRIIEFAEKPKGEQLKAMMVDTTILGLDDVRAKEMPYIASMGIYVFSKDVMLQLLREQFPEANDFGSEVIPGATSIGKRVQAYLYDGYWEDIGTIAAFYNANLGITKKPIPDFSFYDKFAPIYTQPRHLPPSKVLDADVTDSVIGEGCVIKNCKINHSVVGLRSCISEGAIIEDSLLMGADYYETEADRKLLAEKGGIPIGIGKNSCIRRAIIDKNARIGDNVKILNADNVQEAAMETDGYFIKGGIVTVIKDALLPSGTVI
T1 sequence (P55241 46-516): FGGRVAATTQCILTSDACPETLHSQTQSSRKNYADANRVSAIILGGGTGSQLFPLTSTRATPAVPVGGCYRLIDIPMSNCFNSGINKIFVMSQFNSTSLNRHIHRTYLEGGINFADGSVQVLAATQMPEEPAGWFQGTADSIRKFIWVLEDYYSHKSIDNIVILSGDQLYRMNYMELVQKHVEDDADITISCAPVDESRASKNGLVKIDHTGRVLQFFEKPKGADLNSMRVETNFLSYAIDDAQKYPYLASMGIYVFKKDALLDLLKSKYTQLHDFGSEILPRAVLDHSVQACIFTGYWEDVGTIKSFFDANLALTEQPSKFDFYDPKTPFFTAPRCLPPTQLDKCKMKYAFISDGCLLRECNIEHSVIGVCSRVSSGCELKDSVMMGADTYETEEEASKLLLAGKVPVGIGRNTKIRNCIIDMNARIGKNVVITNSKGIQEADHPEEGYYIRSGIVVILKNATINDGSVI
Text: (§1) Activity in the absence of the activator 3PGA was examined. While 3PGA is a noted activator for plant AGPase, the mechanism of activation differs for the various AGPases. […] Thus, the term “activation fold” in the literature is merely an activity reported at single fixed substrate concentrations.
(§2) The small subunit mutant, MP, contains the first 198 amino acids of the small subunit of the maize endosperm enzyme and the last 277 amino acids from the potato tuber enzyme resulting in thirty-three amino acid sites that differ from the maize endosperm enzyme ([Cross et al., 2004]).

SH2-ISM = target: T2, SH2-ISM (Zea mays, UniProt P55241+Q947C0, Q96G/D161G/A443R)
T2 construct: SH2-ISM with wild type BT2 (SH2-ISM/BT2-WT), E. coli, purified
T2 sequence (Q947C0 1-475): T1 sequence (Q947C0 1-475 E123G/R331K/K402R) with G123E, K331R, R402K
T2 sequence (P55241 46-516 Q96G/D161G/A443R): T1 sequence (P55241 46-516) with Q51G, D116G, A398R
Text: as §1, §2

SH2-E = target: T3, SH2-E (Zea mays, UniProt P55241+Q947C0, N131R/T142F/A160T/Q261S/A396S/V416I/C424V/S444A)
T3 construct: SH2-E with wild type BT2 (SH2-E/BT2-WT), E. coli, purified
T3 sequence (Q947C0 1-475): T1 sequence (Q947C0 1-475 E123G/R331K/K402R) with G123E, K331R, R402K
T3 sequence (P55241 46-516 N131R/T142F/A160T/Q261S/A396S/V416I/C424V/S444A): T1 sequence (P55241 46-516) with N86R, T97F, A115T, Q216S, A351S, V371I, C379V, S399A
Text: as §1, §2

SH2-E/BT2-BF = target: T4, SH2-E/BT2-BF (Zea mays, UniProt P55241+Q947C0, E123G/N131R/T142F/A160T/Q261S/R331K/A396S/K402R/V416I/C424V/S444A)
T4 construct: SH2-E co-expressed with BT2-BF, E. coli, purified
T4 sequence (Q947C0 1-475 E123G/R331K/K402R): T1 sequence (Q947C0 1-475 E123G/R331K/K402R)
T4 sequence (P55241 46-516 N131R/T142F/A160T/Q261S/A396S/V416I/C424V/S444A): T1 sequence (P55241 46-516) with N86R, T97F, A115T, Q216S, A351S, V371I, C379V, S399A
Text: as §1, §2

SMILES: Nc1ncnc2c1ncn2[C@@H]1O[C@H](COP(=O)(O)OP(=O)(O)OP(=O)(O)O)[C@@H](O)[C@H]1O [ATP, adenosine 5'-triphosphate]
- Km [1]: 300 ± 250 µM
- Km (SH2-ISM): 100 ± 48 µM
- Km (SH2-E): 2500 ± 430 µM
- Km (SH2-E/BT2-BF): 2410 ± 350 µM
